Test results reported in patent US20140243374A1, “Novel Sulfonamides” (The Brigham and Women's Hospital, Inc., priority 2011, published 2014).
“And” between values parts separate entries of the source, which are not always exact repeats. Equal values may be shown once.

Legend:
[1] = biological target: T1, γ-secretase (cleavage of APP, Aβ42) (Homo sapiens, UniProt P49768); assay: Aβ (1-42) cellular assay (Aβ ELISA, HEK AP-GL-T1 6 cells); type: cell-based; details: for inhibition at 1 µM: at 1 μM (concentration in brackets), read-out: Aβ42 % Inh; for IC50: cellular Aβ42 ELISA, 24 h compound treatment
T1 construct: endogenous in cells; host or cells: HEK AP-GL-T16 luciferase reporter cells (tetracycline-induced APP substrate)
Procedure: Aβ (1-42) Cellular Assay.
The following assay was used to determine the extent to which the compounds of interest inhibit the cleavage of APP in vivo. AβELISA is a commercial fluorometric kit from Biosource (Invitrogen 89344). Luciferase reporter HEK AP-GL-T1 6 cells were plated at 50,000 cells/well in 96 well plates in DMEM media containing 10% tetracyclin free […], 250 μg/mL zeocin, 200 μg/mL hygromycin, and 5 μg/mL blasticidin. Compounds were added 24 h after plating and APP processing is induced simultaneously by addition of tetracycline. Following a 24 h compound treatment, […] of conditioned cell media is collected, mixed with ELISA diluent buffer containing 2 mM AEBSF and 12 mM o-phenanthroline, and immediately frozen at −80° C. For the ELISA, the samples were brought to room temperature and spun at 5000 rpm for 5 min. Samples ([…]) are incubated in the ELISA plate with […] detection antibody on a shaker at room temperature for 3 h. Wells were then washed 4 times with wash buffer and 100 mL of secondary antibody are added and incubated at room temperature for 30 min. Wells were again washed 4 times with wash buffer and 100 mL of fluorescent substrate solution are added. After 30 minutes of incubation, fluorescent signals are determine on a Gemini reader at ex 460 nm and em 560 nm. The amount of Aβ levels in each sample was determined from a standard curve generated by known concentrations of Aβ peptide run simultaneously with the samples.

[2] = biological target: T2, γ-secretase (cleavage of Notch) (Homo sapiens, UniProt P49768); assay: Notch cellular assay (luciferase reporter U2OS cells); type: cell-based; details: for IC50: U2OS luciferase reporter cells; for Notch Luc/Aβ42: ratio Notch luciferase IC50 to Aβ42 IC50
T2 construct: endogenous in cells; host or cells: U2OS luciferase reporter cells with Tet-on Notch
Procedure: This assay was used to determine if the compounds of interest inhibit the cleavage of Notch by γ-secretase in cells. A U2OS cell line in which the luciferase expression is adjusted by active Notch was used in this assay Notch expression is adjusted using Tet-on promoter. Luciferase reporter U2OS cells are plated at 1000 cells/well in 96 well plates in DMEM containing 100 μg/mL hygromycin, 15 μg/mL blasticidin and 1 μg/mL Tetracycline. Compounds were added 24 h after plating and the cells are lysed 6 days after adding compounds. Luciferase expression was performed using Steady-Glo Luciferase Assay System (Promega).

[3] = biological target: T3, γ-secretase (Notch cleavage activity) (Homo sapiens, UniProt P49768); assay: Cleaved Notch1 Sandwich ELISA (SUP-T1 cell line); type: cell-based; details: for IC50: SUP-T1 cells, 16 h; for Notch Elisa/Aβ42: ratio Notch Elisa IC50 to Aβ42 IC50
T3 construct: endogenous in cells; host or cells: SUP-T1 cells
Procedure: Cleaved Notch1 Sandwich ELISA.
This assay was used to determine if the compounds of interest inhibit the Notch cleavage activity of γ-secretase in SUP-T1 cell line, which endogenously expresses a truncated Notch receptor fragment that is a viable gamma-secretase substrate. The base medium for this cell line is ATCC-formulated RPMI-1640 Medium with fetal bovine serum to a final concentration of 10%. Prepare dilution of SUP-T1 cells in complete growth medium to 1.0×10^6 cells/mL, seed 1.5 mL per well of each cell dilution into a 6-well plate. Collect cells treated with serial diluted compounds in DMSO after 16 h, then using equal amount of protein isolated from samples to measure Notch intracellular cleavage by PathScan® Sandwich ELISA Kit (Cell Signaling Tech 7194S).

Row | Structure (SMILES) | inhibition at 1 µM [1] | melting point | IC50 [1] | other results
1 | COC(=O)c1ccc(CN(CC2CCOCC2)S(=O)(=O)c2ccc(Cl)cc2)cc1 [Example 18, Methyl 4-((4-chloro-N-((tetrahydro-2H-pyran-4-yl)methyl)phenylsulfonamido)-methyl)benzoate] | 94% | 115 to 117 °C | – | –
2 | O=C(O)c1ccc(CN(C2CCCCC2)S(=O)(=O)c2ccc(Cl)cc2)c(F)c1F [Example 71, 4-((4-Chloro-N-cyclohexylphenylsulfonamido)methyl)-2,3-difluorobenzoic acid] | – | 111 to 112 °C | 519 nM | –
3 | CC[C@H](C1CCCC1)N(Cc1ccc(C(=O)OC)cc1)S(=O)(=O)c1ccc(Cl)cc1 [Example 22, (R)-Methyl 4-((4-chloro-N-(1-cyclopentylpropyl)phenylsulfonamido)methyl)benzoate] | 0% | 81 to 83 °C | – | –
4 | CC[C@H](C1CCCC1)N(Cc1ccc(C(=O)O)cc1)S(=O)(=O)c1ccc(Cl)cc1 [Example 23, (R)-4-((4-Chloro-N-(1-cyclopentylpropyl)phenylsulfonamido)methyl)benzoic acid] | 0% | 67 to 69 °C | – | –
5 | CC1CCCCC1N(Cc1ccc(C(=O)NC(C)(C)C(=O)O)cc1)S(=O)(=O)c1ccc(C(F)(F)F)nc1 (stereo not drawn) [Example 33, 2-Methyl-2-(4-((N-(2-methylcyclohexyl)-6-(trifluoromethyl)pyridine-3-sulfonamido)methyl)benzamido)propanoicacid] | 56% | 131 to 132 °C | – | –
6 | N#Cc1ccc(CN(C2CCC2)S(=O)(=O)c2ccc(Cl)cc2)c(F)c1 [Example 26, 4-Chloro-N-(4-cyano-2-fluorobenzyl)-N-cyclobutylbenzenesulfonamide] | 54% | 125 to 127 °C | – | –
7 | Cc1ccc(S(=O)(=O)N(Cc2ccc(C#N)cc2F)C2CCCC2)cc1 [Example 29, N-(4-Cyano-2-fluorobenzyl)-N-cyclopentyl-4-methylbenzenesulfonamide] | 0% | 178 to 179 °C | – | –
8 | COc1ccc(CN(C2CCOCC2)S(=O)(=O)c2ccc(Cl)cc2)cc1C(=O)O [Example 8, 5-((4-Chloro-N-(tetrahydro-2H-pyran-4-yl)phenylsulfonamido)methyl)-2-methoxy-benzoic acid] | 0% | 174 to 176 °C | – | –
9 | CS(=O)(=O)c1ccc(CN(C2CCOCC2)S(=O)(=O)c2ccc(Cl)cc2)cc1 [Example 11, 4-Chloro-N-(4-(methylsulfonyl)benzyl)-N-(tetrahydro-2H-pyran-4-yl)benzene-sulfonamide] | 0% | 158 to 160 °C | – | –
10 | CC1CCCCC1N(Cc1ccc(C(=O)NC[C@H](C)O)cc1)S(=O)(=O)c1ccc(Cl)cc1 (stereo partly drawn) [Example 47, 4-((4-Chloro-N-(2-methylcyclohexyl)phenylsulfonamido)methyl)-N—((S)-2-hydroxypropyl)benzamide] | – | – | 0.873 nM | IC50 [2]: 690 nM; Notch Luc/Aβ42 [2]: 791; IC50 [3]: 350 nM; Notch Elisa/Aβ42 [3]: 401
11 | COC[C@@H](C)NC(=O)c1ccc(CN(C2CCCCC2C)S(=O)(=O)c2ccc(Cl)cc2)cc1 (stereo partly drawn) [Example 14, 4-((4-Chloro-N-(2-methylcyclohexyl)phenylsulfonamido)methyl)-N-((R)-1-methoxypropan-2-yl)benzamide] | – | – | 0.7 nM | IC50 [2]: 303 nM; Notch Luc/Aβ42 ([2]; listed as 14/1136): 433; IC50 [3]: 710 nM; Notch Elisa/Aβ42 [3]: 1014
12 | O=C(O)c1ccc(CN(C2CCCCC2F)S(=O)(=O)c2ccc(Cl)cc2)cc1 (single isomer, unassigned) [Example 59, 4-((4-Chloro-N-(2-fluorocyclohexyl)phenylsulfonamido)methyl)benzoic acid] | – | – | 60.7 nM and 195 nM and 101 nM | IC50 [2]: 9400 nM; Notch Luc/Aβ42 ([2]; listed as 59/1231B): 79; IC50 [3]: 2930 nM; Notch Elisa/Aβ42 ([3]; listed as 59/1231B): 25
